Measured values taken from the NIST ThermoML archive (doi:10.1016/j.tca.2006.02.036).
Numbers after ± are expanded uncertainties.

Tests used:
[1] = Molar enthalpy of transition or fusion; conditions: Crystal 2; DSC
[2] = Crystal 2; Adiabatic calorimetry

C1C2CC3CC1CC(C2)C3 [adamantane]
Molar enthalpy of transition or fusion [1]: 0.739 ± 0.043 kcal/mol | Triple point temperature [2]: 208 ± 0.18 K
